Activity calls are given as the source filed them. No cut-off for these calls is given here. Bridge positions count the residues as written; N and C are the ends. Square brackets hold non-standard residues; d marks the D form. Side chains are listed from the residue outwards. Peptide text beside a SMILES is read from it. I, II: the chains in the order shown. ξ: configuration not given here. Gly(N-piperonyl) = O=C(O)CNCc1ccc2c(c1)OCO2; N(4-MeOBn)Gly = COc1ccc(CNCC(=O)O)cc1; Nrpe = C[C@@H](NCC(=O)O)c1ccccc1; NAllylGly = C=CCNCC(=O)O; AEEA = NCCOCCOCC(=O)O; Nlys = NCCCCNCC(=O)O; ξK = NCCCCC(N)C(=O)O; ξM = CSCCC(N)C(=O)O; Nme = COCCNCC(=O)O; βAla = NCCC(=O)O

In one assay the test system is HCC4017. The assay is described as follows: Cytotoxicity against human HCC4017 cells assessed as decrease in cell viability at 0.001 to 50 uM after 24 hrs by calcein AM dye-based fluorescence assay. The class given is functional.
Consider `COc1ccc(CN(CC(=O)NC(CCCCNC(=O)C(CCCCNC(=O)C(CCCCN)NC(=O)C(CCCCN)NC(=O)C(CCSC)NC(=O)CN)NC(=O)CN(Cc2ccc(OC)cc2)C(=O)CN(C(=O)CN(Cc2ccc3c(c2)OCO3)C(=O)CN[C@H](C)c2ccccc2)[C@H](C)c2ccccc2)C(=O)NCCCCC(NC(=O)CN(Cc2ccc(OC)cc2)C(=O)CN(C(=O)CN(Cc2ccc3c(c2)OCO3)C(=O)CN[C@H](C)c2ccccc2)[C@H](C)c2ccccc2)C(=O)NC(CCCCN)C(=O)NC(CCCCN)C(=O)NC(CCSC)C(N)=O)C(=O)CN(C(=O)CN(Cc2ccc3c(c2)OCO3)C(=O)CN[C@H](C)c2ccccc2)[C@H](C)c2ccccc2)cc1` (some centres undefined) (I: H-[Nrpe][Gly(N-piperonyl)][Nrpe][N(4-MeOBn)Gly][ξK][ξK][ξK][ξM]-NH2 / II: H-[Nrpe][Gly(N-piperonyl)][Nrpe][N(4-MeOBn)Gly][ξK]([ξK-ξK-ξM-Gly]) / III: H-[Nrpe][Gly(N-piperonyl)][Nrpe][N(4-MeOBn)Gly][ξK]; amide I:5-III:C, II:C-III:5), for which the result was Active.

The test system of the next assay is HCC4017. The assay is described as follows: Cytotoxicity against human HCC4017 cells assessed as decrease in cell viability at 0.001 to 50 uM after 24 hrs by MTS assay. The class given is functional, cell-based.
As for `COc1ccc(CN(CC(=O)NC(CCCCNC(=O)C(CCCCNC(=O)C(CCCCN)NC(=O)C(CCCCN)NC(=O)C(CCSC)NC(=O)CN)NC(=O)CN(Cc2ccc(OC)cc2)C(=O)CN(C(=O)CN(Cc2ccc3c(c2)OCO3)C(=O)CN[C@H](C)c2ccccc2)[C@H](C)c2ccccc2)C(=O)NCCCCC(NC(=O)CN(Cc2ccc(OC)cc2)C(=O)CN(C(=O)CN(Cc2ccc3c(c2)OCO3)C(=O)CN[C@H](C)c2ccccc2)[C@H](C)c2ccccc2)C(=O)NC(CCCCN)C(=O)NC(CCCCN)C(=O)NC(CCSC)C(N)=O)C(=O)CN(C(=O)CN(Cc2ccc3c(c2)OCO3)C(=O)CN[C@H](C)c2ccccc2)[C@H](C)c2ccccc2)cc1` (some centres undefined) (I: H-[Nrpe][Gly(N-piperonyl)][Nrpe][N(4-MeOBn)Gly][ξK][ξK][ξK][ξM]-NH2 / II: H-[Nrpe][Gly(N-piperonyl)][Nrpe][N(4-MeOBn)Gly][ξK]([ξK-ξK-ξM-Gly]) / III: H-[Nrpe][Gly(N-piperonyl)][Nrpe][N(4-MeOBn)Gly][ξK]; amide I:5-III:C, II:C-III:5), the outcome was Active. For `C=CCNCC(=O)N(CCOC)CC(=O)N(CC=C)CC(=O)N(CCOC)CC(=O)N(CC=C)CC(=O)NCC(=O)NC(CCCCN)C(=O)NC(CCSC)C(=O)NCCCCC(NC(=O)C(CCSC)NC(=O)C(CCCCN)NC(=O)CNC(=O)CN(CC=C)C(=O)CN(CCOC)C(=O)CN(CC=C)C(=O)CN(CCOC)C(=O)CNCC=C)C(N)=O` (centres undefined) (I: H-[NAllylGly][Nme][NAllylGly][Nme][NAllylGly]GKMK-NH2 / II: H-[NAllylGly][Nme][NAllylGly][Nme][NAllylGly]GKM; amide I:9-II:C; configuration not given here), the outcome was inactive.

As for `COc1ccc(CN(CC(=O)N(CCCCN)CC(=O)NC(CCCCN)C(=O)NC(CCCCN)C(=O)NC(CCSC)C(=O)NCCCCC(NC(=O)C(CCSC)NC(=O)C(CCCCN)NC(=O)C(CCCCN)NC(=O)CN(CCCCN)C(=O)CN(Cc2ccc(OC)cc2)C(=O)CN(C(=O)CN(Cc2ccc3c(c2)OCO3)C(=O)CN[C@H](C)c2ccccc2)[C@H](C)c2ccccc2)C(N)=O)C(=O)CN(C(=O)CN(Cc2ccc3c(c2)OCO3)C(=O)CN[C@H](C)c2ccccc2)[C@H](C)c2ccccc2)cc1` (some centres undefined) (I: H-[Nrpe][Gly(N-piperonyl)][Nrpe][N(4-MeOBn)Gly][Nlys][ξK][ξK][ξM][ξK]-NH2 / II: H-[Nrpe][Gly(N-piperonyl)][Nrpe][N(4-MeOBn)Gly][Nlys][ξK][ξK][ξM]; amide I:9-II:C), the result was Active. The same measure, in the same setting: with `COc1ccc(CN(CC(=O)NC(CCCCNC(=O)C(CCCCN)NC(=O)C(CCCCN)NC(=O)CN)C(=O)NCCC(=O)NCCCCC(NC(=O)CN(Cc2ccc(OC)cc2)C(=O)CN(C(=O)CN(Cc2ccc3c(c2)OCO3)C(=O)CN[C@H](C)c2ccccc2)[C@H](C)c2ccccc2)C(=O)NC(CCCCN)C(=O)NC(CCCCN)C(=O)NC(CCSC)C(N)=O)C(=O)CN(C(=O)CN(Cc2ccc3c(c2)OCO3)C(=O)CN[C@H](C)c2ccccc2)[C@H](C)c2ccccc2)cc1` (some centres undefined) (I: H-[Nrpe][Gly(N-piperonyl)][Nrpe][N(4-MeOBn)Gly][ξK][ξK][ξK][ξM]-NH2 / II: H-[Nrpe][Gly(N-piperonyl)][Nrpe][N(4-MeOBn)Gly][ξK]([ξK-ξK-Gly])[βAla]; amide I:5-II:C) the entry was “Active”.

`COc1ccc(CN(CC(=O)NC(CCCCNC(=O)C(CCCCN)NC(=O)C(CCCCN)NC(=O)CN)C(=O)NCCCCC(NC(=O)CN(Cc2ccc(OC)cc2)C(=O)CN(C(=O)CN(Cc2ccc3c(c2)OCO3)C(=O)CN[C@H](C)c2ccccc2)[C@H](C)c2ccccc2)C(=O)NC(CCCCN)C(=O)NC(CCCCN)C(=O)NC(CCSC)C(N)=O)C(=O)CN(C(=O)CN(Cc2ccc3c(c2)OCO3)C(=O)CN[C@H](C)c2ccccc2)[C@H](C)c2ccccc2)cc1` (some centres undefined) (I: H-[Nrpe][Gly(N-piperonyl)][Nrpe][N(4-MeOBn)Gly][ξK][ξK][ξK][ξM]-NH2 / II: H-[Nrpe][Gly(N-piperonyl)][Nrpe][N(4-MeOBn)Gly][ξK]([ξK-ξK-Gly]); amide I:5-II:C): the outcome was Active. Consider `COc1ccc(CN(CC(=O)N(CCCCN)CC(=O)NC(CCCCN)C(=O)NC(CCCCN)C(=O)NC(CCSC)C(N)=O)C(=O)CN(C(=O)CN(Cc2ccc3c(c2)OCO3)C(=O)CN[C@H](C)c2ccccc2)[C@H](C)c2ccccc2)cc1` (some centres undefined) (H-[Nrpe][Gly(N-piperonyl)][Nrpe][N(4-MeOBn)Gly][Nlys][ξK][ξK][ξM]-NH2), for which the outcome was inactive. The same measure, in the same setting: with `COc1ccc(CN(CC(=O)NC(CCCCNC(=O)C(CCCCN)NC(=O)C(CCCCN)NC(=O)CN)C(=O)NCCOCCOCC(=O)NCCC(=O)NCCCCC(NC(=O)CN(Cc2ccc(OC)cc2)C(=O)CN(C(=O)CN(Cc2ccc3c(c2)OCO3)C(=O)CN[C@H](C)c2ccccc2)[C@H](C)c2ccccc2)C(=O)NC(CCCCN)C(=O)NC(CCCCN)C(=O)NC(CCSC)C(N)=O)C(=O)CN(C(=O)CN(Cc2ccc3c(c2)OCO3)C(=O)CN[C@H](C)c2ccccc2)[C@H](C)c2ccccc2)cc1` (some centres undefined) (I: H-[Nrpe][Gly(N-piperonyl)][Nrpe][N(4-MeOBn)Gly][ξK][ξK][ξK][ξM]-NH2 / II: H-[Nrpe][Gly(N-piperonyl)][Nrpe][N(4-MeOBn)Gly][ξK]([ξK-ξK-Gly])[AEEA][βAla]; amide I:5-II:C) the entry was “Active”; with `COc1ccc(CN(CC(=O)NC(CCCCNC(=O)C(CCCCN)NC(=O)C(CCCCN)NC(=O)CN)C(=O)NC(CCCCN)C(=O)NC(CCCCN)C(N)=O)C(=O)CN(C(=O)CN(Cc2ccc3c(c2)OCO3)C(=O)CN[C@H](C)c2ccccc2)[C@H](C)c2ccccc2)cc1` (some centres undefined) (H-[Nrpe][Gly(N-piperonyl)][Nrpe][N(4-MeOBn)Gly][ξK]([ξK-ξK-Gly])[ξK][ξK]-NH2), “inactive”.

The record behind these values is ChEMBL document CHEMBL4118060, “A unique mid-sequence linker used to multimerize the lipid-phosphatidylserine (PS) binding peptide-peptoid hybrid PPS1” (Eur J Med Chem, 2017).
